Measured values from patent US20070128217A1 (priority 2003, published 2007).

Columns and labels:
[1] = system: antibodies in sera from SARS patients (sera 1a, 1b, 2, 6, 37, 62, London, SARS-yellow, SARS-green); assay type: binding, human; set-up: Binding of serum 6 to linear peptides of protein X1 of SARS-CoV Urbani / Binding of serum 37 to linear peptides of protein X1 of SARS-CoV Urbani / Binding of serum 6 to looped/cyclic peptide (PEPSCAN-ELISA) / Binding of serum 37 to looped/cyclic peptide (PEPSCAN-ELISA) / Binding of serum 37 to looped/cyclic peptides of protein X1 of SARS-CoV Urbani / Binding of serum 6 to linear peptides of protein X2 / Binding of serum 37 to linear peptides of protein X2 / Binding of serum 37 to looped/cyclic peptides of protein X2 of SARS-CoV Urbani / Binding of serum 6 to linear peptides of protein M of SARS-CoV Urbani / Binding of serum 37 to linear peptides of protein M of SARS-CoV Urbani / Binding of serum 6 to looped/cyclic peptides of protein M of SARS-CoV Urbani / Binding of serum 37 to looped/cyclic peptides of protein M of SARS-CoV Urbani / Binding of serum 6 to linear peptides of protein X3 of SARS-CoV Urbani / Binding of serum 37 to linear peptides of protein X3 of SARS-CoV Urbani / Binding of serum 37 to looped/cyclic peptides of protein X3 of SARS-CoV Urbani / Binding of serum 6 to linear peptides of protein X4 of SARS-CoV Urbani / Binding of serum 37 to linear peptides of protein X4 of SARS-CoV Urbani / Binding of serum 37 to looped/cyclic peptides of protein X4 of SARS-CoV Urbani / Binding of serum 6 to linear peptides of protein X5 of SARS-CoV Urbani / Binding of serum 37 to linear peptides of protein X5 of SARS-CoV Urbani / Binding of serum 37 to looped/cyclic peptides of protein X5 of SARS-CoV Urbani / Binding of serum 6 to linear peptides of protein N of SARS-CoV Urbani / Binding of serum 37 to linear peptides of protein N of SARS-CoV Urbani / Binding of serum 6 to linear peptide (PEPSCAN-ELISA) / Binding of serum 1a to looped/cyclic peptides of protein N of SARS-CoV Urbani / Binding of serum 1b to looped/cyclic peptides of protein N of SARS-CoV Urbani / Binding of serum 2 to looped/cyclic peptides of protein N of SARS-CoV Urbani / Binding of serum 6 to looped/cyclic peptides of protein N of SARS-CoV Urbani / Binding of serum 37 to looped/cyclic peptides of protein N of SARS-CoV Urbani / Binding of serum 62 to looped/cyclic peptides of protein N of SARS-CoV Urbani / Binding of serum London to looped/cyclic peptides of protein N of SARS-CoV Urbani / Binding of serum SARS-green to looped/cyclic peptides of protein N of SARS-CoV Urbani: unit not given here
[2] = system: control sera (pooled serum of ten healthy LUMC hospital workers; commercial negative donor pooled serum from the Dutch bloodbank); assay type: binding, human; set-up: Binding of Control serum LUMC to linear peptides / Binding of Control serum Blood-bank to linear peptides / Binding of Control serum LUMC to looped peptides / Binding of Control Serum Blood-Bank to Looped peptides / Binding of Control serum LUMC to linear peptides of the protein M of SARS-CoV Urbani / Binding of Control serum Blood-bank to linear peptides of the protein M of SARS-CoV Urbani / Binding of Control serum LUMC to looped peptides of the protein M of SARS-CoV Urbani / Binding of Control Serum Blood-Bank to Looped peptides of the protein M of SARS-CoV Urbani: unit not given here
[3] = system: recombinant human anti-SARS-CoV antibody 03-018; assay type: binding; set-up: Binding of antibody 03-018 to linear peptides of the N protein of SARS-CoV Urbani / Binding of antibody 03-018 to looped/cyclic peptides of the N protein of SARS-CoV Urbani: unit not given here
[4] = system: rabbit serum obtained by immunizing a rabbit with the SARS-CoV strain Frankfurt 1; assay type: binding; set-up: Binding of a rabbit serum to linear peptides / Binding of a rabbit serum to looped peptides / Rabbit serum linear peptides / Rabbit serum looped peptides / Binding of a rabbit serum to linear peptides of protein N of SARS-CoV Urbani (Rabbit serum linear peptides) / Binding of a rabbit serum to looped/cyclic peptides of protein N of SARS-CoV Urbani (Rabbit serum looped peptides): unit not given here

| Sequence | Binding of serum 1a to linear peptides of protein N of SARS-CoV Urbani [1] | Binding of serum 1a to looped/cyclic peptides of protein N of SARS-CoV Urbani [1] | Binding of serum 1b to linear peptides of protein N of SARS-CoV Urbani [1] | Binding of serum 1b to looped/cyclic peptides of protein N of SARS-CoV Urbani [1] | Binding of serum 2 to linear peptides of protein N of SARS-CoV Urbani [1] | Binding of serum 2 to looped/cyclic peptides of protein N of SARS-CoV Urbani [1] | Binding of serum 6 to linear peptides of protein N of SARS-CoV Urbani [1] | Binding of serum 6 to looped/cyclic peptides of protein N of SARS-CoV Urbani [1] | Binding of serum 37 to linear peptides of protein N of SARS-CoV Urbani [1] | Binding of serum 37 to looped/cyclic peptides of protein N of SARS-CoV Urbani [1] | Binding of serum 62 to linear peptides of protein N of SARS-CoV Urbani [1] | Binding of serum 62 to looped/cyclic peptides of protein N of SARS-CoV Urbani [1] | Binding of serum London to linear peptides of protein N of SARS-CoV Urbani [1] | Binding of serum London to looped/cyclic peptides of protein N of SARS-CoV Urbani [1] | Binding of serum SARS-green to linear peptides of protein N of SARS-CoV Urbani [1] | Binding of serum SARS-green to looped/cyclic peptides of protein N of SARS-CoV Urbani [1] | Binding of serum SARS-yellow to linear peptides of protein N of SARS-CoV Urbani [1] | Binding of serum SARS-yellow to looped/cyclic peptides of protein N of SARS-CoV Urbani [1] | Binding of antibody 03-018 to linear peptides of the N protein of SARS-CoV Urbani [3] | Binding of antibody 03-018 to looped/cyclic peptides of the N protein of SARS-CoV Urbani [3] | other results |
| --- | --- | --- | --- | --- | --- | --- | --- | --- | --- | --- | --- | --- | --- | --- | --- | --- | --- | --- | --- | --- | --- |
| DGKMKELSPRWYFYY | 0.2 | 0.4 | 0.1 | 0.3 | 0.2 | 0.5 | 0.1 | 0.4 | 0.5 | 0.8 | 0.5 | 0.7 | 0.4 | 0.5 | 0.4 | 0.4 | 0.5 | 0.5 | 0.1 | 0.2 | Binding of Control Serum Blood-Bank to Looped peptides [2]: 0.8; Binding of Control serum Blood-bank to linear peptides [2]: 0.8; Binding of Control serum LUMC to linear peptides [2]: 0.6; Binding of Control serum LUMC to looped peptides [2]: 0.7; Binding of a rabbit serum to linear peptides of protein N of SARS-CoV Urbani (Rabbit serum linear peptides) [4]: 0.1; Binding of a rabbit serum to looped/cyclic peptides of protein N of SARS-CoV Urbani (Rabbit serum looped peptides) [4]: 0.6 |
| DHIGTRNPNNNAATV | 0.3 | 0.5 | 0.1 | 0.4 | 0.3 | 0.8 | 0.2 | 0.5 | 0.7 | 1.1 | 0.7 | 0.8 | 0.5 | 0.7 | 0.5 | 0.5 | 0.7 | 0.6 | 0.1 | 0.3 | Binding of Control Serum Blood-Bank to Looped peptides [2]: 0.9; Binding of Control serum Blood-bank to linear peptides [2]: 0.8; Binding of Control serum LUMC to linear peptides [2]: 0.7; Binding of Control serum LUMC to looped peptides [2]: 1.0; Binding of a rabbit serum to linear peptides of protein N of SARS-CoV Urbani (Rabbit serum linear peptides) [4]: 0.1; Binding of a rabbit serum to looped/cyclic peptides of protein N of SARS-CoV Urbani (Rabbit serum looped peptides) [4]: 0.5 |
| DKKKKTDEAQPLPQR | 0.2 | 0.2 | 0.1 | 0.1 | 0.2 | 0.2 | 0.2 | 0.1 | 0.6 | 0.4 | 0.6 | 0.3 | 0.5 | 0.3 | 0.5 | 0.3 | 0.6 | 0.3 | 0.1 | 0.2 | Control Serum Blood-Bank Looped peptides [2]: 0.5; Control serum Blood-bank linear peptides [2]: 0.8; Control serum LUMC linear peptides [2]: 0.6; Control serum LUMC looped peptides [2]: 0.4; Binding of a rabbit serum to linear peptides of protein N of SARS-CoV Urbani (Rabbit serum linear peptides) [4]: 0.1; Binding of a rabbit serum to looped/cyclic peptides of protein N of SARS-CoV Urbani (Rabbit serum looped peptides) [4]: 0.3 |
| DMDDFSRQLQNSMSG | 0.2 | 0.3 | 0.2 | 0.1 | 0.2 | 0.3 | 0.3 | 0.0 | 0.8 | 0.4 | 0.7 | 0.2 | 0.7 | 0.2 | 0.3 | 0.0 | 0.7 | 0.2 | 0.1 | 0.2 | Control Serum Blood-Bank Looped peptides [2]: 0.4; Control serum Blood-bank linear peptides [2]: 0.8; Control serum LUMC linear peptides [2]: 0.6; Control serum LUMC looped peptides [2]: 0.3; Binding of a rabbit serum to linear peptides of protein N of SARS-CoV Urbani (Rabbit serum linear peptides) [4]: 0.2; Binding of a rabbit serum to looped/cyclic peptides of protein N of SARS-CoV Urbani (Rabbit serum looped peptides) [4]: 0.4 |
